# Test results taken from PubChem BioAssay (NCI).
# Where “and” joins values, the source holds several entries; their conditions need not be identical. Equal values may be shown once.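 Values below derive from 48-hour exposures of cells grown in 96-well plates, with endpoints linearly interpolated between the two concentrations bracketing the appropriate inhibition level. GI50 = concentration required for 50% inhibition of growth. Definition used: TGI = concentration required for complete inhibition of growth.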 Residues, ends and D or L forms follow the SMILES beside them. *: point of attachment. Cbz = O=C(OCc1ccccc1)*
# What was measured:
# Assay in all cases: NCI-60 cell line screen, 48 h
# HCC-2998 colon = tested on: HCC-2998 colon
# MOLT-4 leukemia = tested on: MOLT-4 leukemia
# NCI-H460 lung = tested on: NCI-H460 lung
# HOP-62 NSCLC = tested on: HOP-62 NSCLC
# T-47D breast = tested on: T-47D breast
# SN12C renal = tested on: SN12C renal
# TK-10 renal = tested on: TK-10 renal
# HS 578T breast = tested on: HS 578T breast
# U251 CNS = tested on: U251 CNS
# SK-MEL-2 melanoma = tested on: SK-MEL-2 melanoma
SMILES,TGI (HCC-2998 colon),TGI (MOLT-4 leukemia),TGI (NCI-H460 lung),TGI (HOP-62 NSCLC),TGI (T-47D breast) [µM],TGI (SN12C renal),TGI (TK-10 renal) [µM],TGI (HS 578T breast),TGI (U251 CNS),TGI (SK-MEL-2 melanoma) [µM],GI50 (HCC-2998 colon),GI50 (MOLT-4 leukemia) [µM],GI50 (NCI-H460 lung) [µM],GI50 (HOP-62 NSCLC),GI50 (T-47D breast) [µM],GI50 (SN12C renal),GI50 (TK-10 renal) [µM],GI50 (HS 578T breast),GI50 (U251 CNS) [µM],GI50 (SK-MEL-2 melanoma) [µM]
CC(=O)OCC1OC(n2ncc(=O)[nH]c2=O)C(OC(C)=O)C1OC(C)=O (centres undefined),> 100 µM,> 100 µM,> 100 µM,> 100 µM,> 100,> 100 µM,> 100,> 100 µM,> 100 µM,,,,,,,,,,,
CC(C)=NNC(=S)NC12CC3CC(CC(C3)C1)C2,,> 100 µM,> 100 µM,> 100 µM,,> 100 µM,> 100,,> 100 µM,> 100,,,,,,,,,,
COc1cc(/C=C/C(=O)c2c(-c3ccc(F)cc3)nc3sc(C)nn23)cc(OC)c1OC,3.96 µM,6.72 µM,4.08 µM,7.06 µM,7.57,8.65 µM,8.14,> 100 µM,5.45 µM,,2.12 µM,2.3,1.94,2.28 µM,2.09,2.48 µM,2.92,5.39 µM,2.01,
NC(=O)c1cc(Br)ccc1NC(=O)/C=C/c1ccccc1,> 100 µM,> 53.9 µM,> 100 µM,> 23.7 µM,> 100,> 100 µM,39.3,6.27 µM,> 43.4 µM,,28.1 µM,4.02,1.42,5.47 µM,3.51,4.9 µM,5.93,1.09 µM,1.81,
NC(N)=N/N=C/c1c(-c2cccnc2)nc2sc(Cl)cn12,27.5 µM,31.6 µM,> 100 µM,31.9 µM,,,29.3,46.6 µM,26.1 µM,> 100,14.4 µM,13.6,61.2,18 µM,,,15.4,22.3 µM,13.3,42.8
CCNCCNc1cc(-c2ccc(C(F)(F)F)cc2)c(C#N)c2nc3cc(Cl)c(Cl)cc3n12,4.14 µM,,3.27 µM,3.56 µM,3.78,3.46 µM,3.87,3.91 µM,3.08 µM,,2.34 µM,,1.66,1.96 µM,1.94,1.77 µM,2.38,1.81 µM,1.67,
CC(C)C[C@@H](C=O)NC(=O)[C@H](CC(C)C)NC(=O)[C@H](CC(C)C)NC(=O)OCc1ccccc1 (Cbz-Leu-Leu-Leu-aldehyde),0.631 µM,11.9 µM,2.02 µM,,0.598,1.01 µM,0.893,> 100 µM,1.07 µM,3.28,0.24 µM,0.322,0.455,,0.222,0.315 µM,0.27,0.437 µM,0.332,0.483
COc1cc(CCC(=O)NC[C@@H](O)c2ccccc2)ccc1O,,> 100 µM,> 100 µM,> 100 µM,> 100,> 100 µM,> 100,,> 100 µM,> 100,,> 100,> 100,> 100 µM,> 100,> 100 µM,> 100,,> 100,> 100
C=C1CC2(CCS(=O)(=O)c3ccccc32)OC1=O (centres undefined),37.1 µM,15 µM,35.3 µM,46.8 µM,,,26.7,,26 µM,23.6,,,,,,,,,,
COC12OCCN(C)C1=CC(=O)C1(C)N=NCC12 (centres undefined),> 100 µM,> 100 µM,> 100 µM,,,> 100 µM,> 100,,> 100 µM,,,,,,,,,,,
CCOC(=O)CN(c1ccccc1)c1nc(=[N+](C)C)ss1,> 100 µM,28.2 µM,,> 100 µM,,36.7 µM,> 100,,41.5 µM,55.9,,,,,,,,,,
Cc1ccc(C(=O)NCCN(C)C)c2nc3ccccc3cc12,13.4 µM,> 100 µM,14.7 µM,> 100 µM,,10.2 µM,12.2,,4.09 µM,> 100,,,,,,,,,,
CCCCCCCCCCCCCCCCN(CC)CC,3.3 µM,,3.56 µM,8.77 µM,17,5.53 µM,3.4,15.8 µM,,8.9,1.77 µM,,1.92,2.87 µM,3.39,2.21 µM,1.71,3.47 µM,,3.01
COc1cc2nc3cc([N+](=O)[O-])ccc3c(NCCNCC(C)O)c2cc1OC (centres undefined),,6.21 µM,1.6 µM,2.87 µM,2.33,,5.71,5.51 µM,2.26 µM,2.18,,0.353,0.366,0.713 µM,0.365,,1.72,1.45 µM,0.442,0.63
COC(=O)C1[C@H](c2ccc3c(c2)OCO3)OC(=O)[C@]1(C(=O)OC)C(=O)c1ccc(OC)c(OC)c1 (some centres undefined),> 100 µM,87.2 µM,> 100 µM,> 100 µM,,> 100 µM,> 100,,> 100 µM,79.9,,,,,,,,,,
O=C1CC(CC(OCc2ccccc2)C(OCc2ccccc2)C(COCc2ccccc2)OCc2ccccc2)CC(=O)N1 (centres undefined),> 100 µM and 42.9 µM,> 100 µM and 35.3 µM,> 100 µM and 97.7 µM,> 100 µM and 73.1 µM,,> 100 µM and 54.1 µM,> 100,> 100 µM and 33.9 µM,> 100 µM and 18.1 µM,,> 100 µM and 12.9 µM,,,> 100 µM and 26.8 µM,,> 100 µM and 18.6 µM,,> 100 µM and 16.5 µM,,
Cc1ccc(S(=O)(=O)OCCOCCOCCOCCOCCOS(=O)(=O)c2ccc(C)cc2)cc1,> 100 µM,41.4 µM,> 100 µM,> 100 µM,,> 100 µM,> 100,,> 100 µM,> 100,,,,,,,,,,
COC(=O)CNc1nc(N(C)O)nc(N(C)O)n1,,> 100 µM,> 100 µM,> 100 µM,> 100,> 100 µM,> 100,> 100 µM,> 100 µM,25.7,,1.69,0.557,2.12 µM,17.7,9.17 µM,1.61,8.96 µM,2.26,3.45
